“And” between values parts separate entries of the source, which are not always exact repeats. Equal values may be shown once. Inconclusive results and toxic doses are left out.
System: L1210 leukemia ip in BDF1 mice, survival T/C
Assay: NCI In Vivo Anticancer Drug Screen. Data for tumor model L1210 Leukemia (intraperitoneal) in B6D2F1 (BDF1) mice
Details: endpoint: mean survival time, higher = longer survival
In short: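 Transplantable tumor model; survival measured in treated vs vehicle control mice. Value = treated/control.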

[1] = dose: 100.0 mg/kg/injection, schedule: Q01DX001 (ip), vehicle: saline
[2] = dose: 200.0 mg/kg/injection, schedule: Q01DX001 (ip), vehicle: saline
[3] = dose: 400.0 mg/kg/injection, schedule: Q01DX001 (ip), vehicle: saline
[4] = dose: 100.0 mg/kg/injection, schedule: Q01DX001 (ip), vehicle: carboxymethylcellulose (CMC)
[5] = dose: 100.0 mg/kg/injection, schedule: Q01DX009 (ip), vehicle: saline
[6] = dose: 100.0 mg/kg/injection, schedule: Q04DX003 (ip), vehicle: saline
[7] = dose: 200.0 mg/kg/injection, schedule: Q01DX009 (ip), vehicle: saline
[8] = dose: 200.0 mg/kg/injection, schedule: Q04DX003 (ip), vehicle: saline
[9] = dose: 100.0 mg/kg/injection, schedule: Q04DX003 (ip), vehicle: Klucel (hydroxypropylcellulose) (HPC)
[10] = dose: 200.0 mg/kg/injection, schedule: Q04DX003 (ip), vehicle: Klucel (hydroxypropylcellulose) (HPC)
[11] = dose: 400.0 mg/kg/injection, schedule: Q04DX003 (ip), vehicle: Klucel (hydroxypropylcellulose) (HPC)

## CCOc1ccc(Nc2nc(=O)[nH]c3ccccc23)cc1CN(CCCl)CCCl
dose: 25.0 mg/kg/injection, schedule: Q04DX002 (ip), vehicle: saline
  T/C: 104 % of control
dose: 50.0 mg/kg/injection, schedule: Q04DX002 (ip), vehicle: saline
  T/C: 100 % of control
dose: 100.0 mg/kg/injection, schedule: Q04DX002 (ip), vehicle: saline
  T/C: 111 % of control
dose: 200.0 mg/kg/injection, schedule: Q04DX002 (ip), vehicle: saline
  T/C: 95 % of control and 111 % of control
dose: 400.0 mg/kg/injection, schedule: Q04DX002 (ip), vehicle: saline
  T/C: 95 % of control

## CCN(CC)CCOc1cc(C)c2cc(Cc3ccccc3)ccc2n1
dose: 100.0 mg/kg/injection, schedule: Q01DX001 (ip), vehicle: other
  T/C: 104 % of control
dose: 200.0 mg/kg/injection, schedule: Q01DX001 (ip), vehicle: other
  T/C: 96 % of control

## CCCCCCCNC(=O)Nc1ccc(Cl)c(Cl)c1
[1]
  T/C: 95 % of control
[2]
  T/C: 90 % of control
[3]
  T/C: 97 % of control

## CCCCNC(=O)C1CCC(CC2CCCCC2)CC1 (stereo not given)
dose: 100.0 mg/kg/injection, schedule: Q04DX002 (ip), vehicle: saline with Tween-80
  T/C: 90 % of control
dose: 200.0 mg/kg/injection, schedule: Q04DX002 (ip), vehicle: saline with Tween-80
  T/C: 105 % of control
dose: 400.0 mg/kg/injection, schedule: Q04DX002 (ip), vehicle: saline with Tween-80
  T/C: 94 % of control

## O=C1C=CC(=O)c2cc3ccccc3cc21
[4]
  T/C: 102 % of control

## C[C@H]1/C(=C/C(=O)OCCN(C)C)CC[C@H]2[C@H]1C(=O)C[C@H]1C(C)(C)[C@@H](O)CC[C@]21C
dose: 5.0 mg/kg/injection, schedule: Q01DX001 (ip), vehicle: other
  T/C: 106 % of control
dose: 10.0 mg/kg/injection, schedule: Q01DX001 (ip), vehicle: other
  T/C: 97 % of control
dose: 20.0 mg/kg/injection, schedule: Q01DX001 (ip), vehicle: other
  T/C: 97 % of control

## COC(=O)C(N)CCl (stereo not given)
dose: 100.0 mg/kg/injection, schedule: Q01DX001 (ip), vehicle: steriod suspending solution
  T/C: 101 % of control
[5]
  T/C: 93 % of control
[6]
  T/C: 106 % of control
dose: 200.0 mg/kg/injection, schedule: Q01DX001 (ip), vehicle: steriod suspending solution
  T/C: 95 % of control
[7]
  T/C: 100 % of control
[8]
  T/C: 102 % of control
dose: 400.0 mg/kg/injection, schedule: Q01DX001 (ip), vehicle: steriod suspending solution
  T/C: 106 % of control
dose: 400.0 mg/kg/injection, schedule: Q01DX009 (ip), vehicle: saline
  T/C: 101 % of control
dose: 400.0 mg/kg/injection, schedule: Q04DX003 (ip), vehicle: saline
  T/C: 104 % of control

## CC1(C)OC(=O)C(C#N)C1c1ccccc1 (stereo not given)
[1]
  T/C: 93 % of control
[2]
  T/C: 91 % of control
[3]
  T/C: 96 % of control

## O=C(Nc1ccc(C2=NCCN2)cc1)c1ccc(CNc2ccc(C3=NCCN3)cc2)cc1
dose: 0.5 mg/kg/injection, schedule: Q01DX Z (ip), vehicle: water
  T/C: 93 % of control
dose: 1.0 mg/kg/injection, schedule: Q01DX Z (ip), vehicle: water
  T/C: 96 % of control
dose: 2.0 mg/kg/injection, schedule: Q01DX Z (ip), vehicle: water
  T/C: 113 % of control
dose: 4.0 mg/kg/injection, schedule: Q01DX Z (ip), vehicle: water
  T/C: 111 % of control
dose: 6.25 mg/kg/injection, schedule: Q01DX Z (ip), vehicle: water
  T/C: 159 % of control
dose: 12.5 mg/kg/injection, schedule: Q01DX Z (ip), vehicle: water
  T/C: 276 % of control
dose: 25.0 mg/kg/injection, schedule: Q01DX Z (ip), vehicle: water
  T/C: 188 % of control

## CCCCC(=O)N/N=C\c1cc([N+](=O)[O-])ccc1O
[4]
  T/C: 91 % of control
dose: 200.0 mg/kg/injection, schedule: Q01DX001 (ip), vehicle: carboxymethylcellulose (CMC)
  T/C: 98 % of control
dose: 400.0 mg/kg/injection, schedule: Q01DX001 (ip), vehicle: carboxymethylcellulose (CMC)
  T/C: 87 % of control

## c1ccc(-c2csc(NNc3nc(-c4ccccc4)cs3)n2)cc1
[9]
  T/C: 95 % of control
[10]
  T/C: 90 % of control
[11]
  T/C: 112 % of control

## NC(N1CC1)(C(F)(F)F)C(F)(F)F
dose: 20.0 mg/kg/injection, schedule: Q01DX001 (ip), vehicle: saline
  T/C: 100 % of control
dose: 20.0 mg/kg/injection, schedule: Q04DX003 (ip), vehicle: saline
  T/C: 102 % of control
dose: 40.0 mg/kg/injection, schedule: Q01DX001 (ip), vehicle: saline
  T/C: 111 % of control
dose: 40.0 mg/kg/injection, schedule: Q04DX003 (ip), vehicle: saline
  T/C: 102 % of control
dose: 80.0 mg/kg/injection, schedule: Q01DX001 (ip), vehicle: saline
  T/C: 102 % of control
dose: 80.0 mg/kg/injection, schedule: Q04DX003 (ip), vehicle: saline
  T/C: 94 % of control

## O=c1cc[nH]c2ccccc12
dose: 100.0 mg/kg/injection, schedule: Q01DX001 (ip), vehicle: saline with Tween-80
  T/C: 96 % of control
dose: 200.0 mg/kg/injection, schedule: Q01DX001 (ip), vehicle: saline with Tween-80
  T/C: 97 % of control
dose: 400.0 mg/kg/injection, schedule: Q01DX001 (ip), vehicle: saline with Tween-80
  T/C: 103 % of control

## CCCCCC[P+](=O)CCCCCC
dose: 100.0 mg/kg/injection, schedule: Q04DX002 (ip), vehicle: gum acacia
  T/C: 97 % of control
dose: 200.0 mg/kg/injection, schedule: Q04DX002 (ip), vehicle: gum acacia
  T/C: 103 % of control

## O=C1NC(=O)C(c2cccs2)(c2cccs2)N1
dose: 25.0 mg/kg/injection, schedule: Q01DX009 (ip), vehicle: water
  T/C: 98 % of control
dose: 50.0 mg/kg/injection, schedule: Q01DX009 (ip), vehicle: water
  T/C: 102 % of control
dose: 100.0 mg/kg/injection, schedule: Q01DX009 (ip), vehicle: water
  T/C: 98 % of control
dose: 100.0 mg/kg/injection, schedule: Q04DX003 (ip), vehicle: water
  T/C: 106 % of control
dose: 200.0 mg/kg/injection, schedule: Q01DX009 (ip), vehicle: water
  T/C: 91 % of control
dose: 200.0 mg/kg/injection, schedule: Q04DX003 (ip), vehicle: water
  T/C: 112 % of control
dose: 300.0 mg/kg/injection, schedule: Q01DX009 (ip), vehicle: water
  T/C: 90 % of control

## CCN(CC)CC(=O)NC(CCN(C)C)(c1cccc2ccccc12)C(C)C (stereo not given)
dose: 50.0 mg/kg/injection, schedule: Q01DX009 (ip), vehicle: saline
  T/C: 94 % of control
[5]
  T/C: 112 % of control
[6]
  T/C: 105 % of control
[7]
  T/C: 100 % of control
[8]
  T/C: 105 % of control

## NC(=O)CCCCCCCC(N)=O
[9]
  T/C: 89 % of control
[10]
  T/C: 89 % of control
[11]
  T/C: 94 % of control

## OCCNCc1cccc(-c2ccccc2)c1O
dose: 100.0 mg/kg/injection, schedule: Q01DX009 (ip), vehicle: saline with Tween-80
  T/C: 93 % of control
dose: 200.0 mg/kg/injection, schedule: Q01DX009 (ip), vehicle: saline with Tween-80
  T/C: 87 % of control
dose: 400.0 mg/kg/injection, schedule: Q01DX009 (ip), vehicle: saline with Tween-80
  T/C: 101 % of control

## O=[N+]([O-])c1ccccc1N=Nc1c(O)[nH]c2ccc(S(=O)(=O)O)cc12
dose: 100.0 mg/kg/injection, schedule: Q01DX001 (ip), vehicle: acetone
  T/C: 94 % of control
dose: 200.0 mg/kg/injection, schedule: Q01DX001 (ip), vehicle: acetone
  T/C: 92 % of control
dose: 400.0 mg/kg/injection, schedule: Q01DX001 (ip), vehicle: acetone
  T/C: 100 % of control

## CCCCN(CCCC)CCNc1cc(C)nc(/N=C(\N)Nc2ccc(Cl)c(Cl)c2)n1
dose: 38.0 mg/kg/injection, schedule: Q01DX009 (ip), vehicle: other
  T/C: 91 % of control
dose: 38.0 mg/kg/injection, schedule: Q04DX003 (ip), vehicle: other
  T/C: 104 % of control
dose: 75.0 mg/kg/injection, schedule: Q01DX001 (ip), vehicle: other
  T/C: 101 % of control
dose: 75.0 mg/kg/injection, schedule: Q01DX009 (ip), vehicle: other
  T/C: 105 % of control
dose: 75.0 mg/kg/injection, schedule: Q04DX003 (ip), vehicle: other
  T/C: 114 % of control
dose: 150.0 mg/kg/injection, schedule: Q01DX001 (ip), vehicle: other
  T/C: 103 % of control
dose: 150.0 mg/kg/injection, schedule: Q04DX003 (ip), vehicle: other
  T/C: 87 % of control
dose: 300.0 mg/kg/injection, schedule: Q01DX001 (ip), vehicle: other
  T/C: 95 % of control

## Cc1ccc(S(=O)(=O)/C=C(/I)C(=O)c2ccccc2)cc1
[1]
  T/C: 95 % of control
[2]
  T/C: 93 % of control
[3]
  T/C: 95 % of control
